Test system: RBL-1 cell
Details: glass chip treated with base then H2O (FIG. 31) and conventional patch glass capillary (FIG. 30), addition of barium chloride
Experimental: After baking, the glass chips were stored in de-ionized H2O for many hours (ranging from less than 1 hour to over 2 days). […] The whole cell recording on a RBL-1 cell on this chip for a ramping voltage protocol, in which the voltage applied across the cell membrane linearly varied with time from −120 mV to 60 mV at a rate of 120 mV/second, is shown in FIG. 29. […] With or without baking the chips, the glass chips were first treated with HNO3 (6 M) for 4 or 5 hours, then treated with NaOH (5M) for 30-45 minutes, and were then transferred into de-ionized H2O (pH=6-7) for storage/treatment. […] A ramping voltage protocol was used for the recording in FIG. 32, in which the voltage applied across the cell membrane linearly varied with time from −120 mV to 60 mV at a rate of 120 mV/second. […] A ramping voltage protocol was used for the recording in FIG. 33, in which the voltage applied across the cell membrane linearly varied with time from −120 mV to 60 mV at a rate of 120 mV/second. • (4) Laser polishing followed by Acid treatment and then by base treatment.

[Ba+2].[Cl-].[Cl-] [barium chloride]
whole-cell current: inhibition of the whole-cell current
